# What was measured:
# A375 cells = experiment: Cell cycle progression by FACS (subG1 and G2/M population) in A375 cells; format: cell-based, human; conditions: 1a 42 μM, 1b 23.4 μM
# Text: (§1) The cytotoxic effects of the newly synthesized compounds 1a and 1b and their respective PBD imines were examined by cell cycle progression experiments on human tumor cells, by using fluorescence-activated cell sorting (FACS) analysis, in the absence and in the presence of β-galactosidase enzyme. In the primary flow cytometric study, the DNA content of the cells was used as a major determinant for cell count. The subG1 population, a conspicuous indicator for cell death, presumably apoptosis, and G2/M population was also determined in HepG2 and A375 cell lines.
# HepG2 cells = experiment: Cell cycle progression by FACS (subG1 and G2/M population) in HepG2 cells; format: cell-based, human
# Text: as §1
# Next we evaluated the prodrugs for their activation efficiency by intracellular β-galactosidase, in human liver cancer, HepG2 cells.
# E. coli β-galactosidase = E. coli β-galactosidase (Escherichia coli, UniProt P00722); format: biochemical; conditions: in the presence of β-galactosidase, 60-90 minutes, 37° C., pH 7.2 (phosphate buffer)
# Description: FIG. 1. A drawing illustrating the effect of the prodrug 1a 1 μmole was treated with 2 units of E. coli β galactosidase enzyme and the progress of the hydrolysis was monitored by reverse phase HPLC. HPLC conditions: C18 Reverse phase column. Mobile phase 40:60 CH3CN/ H2O, flow rate of 1 ml/ min. UV detection: wave length 254 nm.
# The prodrug 1a 1 μmole was treated with 2 units of E. coli β galactosidase enzyme and the progress of the hydrolysis was monitored by reverse phase HPLC. The results are presented in the form of a graph as illustrated in FIG. 1. Biological Studies Of The Prodrugs
# E. coli β-galactosidase, sequence (P00722 2-1024): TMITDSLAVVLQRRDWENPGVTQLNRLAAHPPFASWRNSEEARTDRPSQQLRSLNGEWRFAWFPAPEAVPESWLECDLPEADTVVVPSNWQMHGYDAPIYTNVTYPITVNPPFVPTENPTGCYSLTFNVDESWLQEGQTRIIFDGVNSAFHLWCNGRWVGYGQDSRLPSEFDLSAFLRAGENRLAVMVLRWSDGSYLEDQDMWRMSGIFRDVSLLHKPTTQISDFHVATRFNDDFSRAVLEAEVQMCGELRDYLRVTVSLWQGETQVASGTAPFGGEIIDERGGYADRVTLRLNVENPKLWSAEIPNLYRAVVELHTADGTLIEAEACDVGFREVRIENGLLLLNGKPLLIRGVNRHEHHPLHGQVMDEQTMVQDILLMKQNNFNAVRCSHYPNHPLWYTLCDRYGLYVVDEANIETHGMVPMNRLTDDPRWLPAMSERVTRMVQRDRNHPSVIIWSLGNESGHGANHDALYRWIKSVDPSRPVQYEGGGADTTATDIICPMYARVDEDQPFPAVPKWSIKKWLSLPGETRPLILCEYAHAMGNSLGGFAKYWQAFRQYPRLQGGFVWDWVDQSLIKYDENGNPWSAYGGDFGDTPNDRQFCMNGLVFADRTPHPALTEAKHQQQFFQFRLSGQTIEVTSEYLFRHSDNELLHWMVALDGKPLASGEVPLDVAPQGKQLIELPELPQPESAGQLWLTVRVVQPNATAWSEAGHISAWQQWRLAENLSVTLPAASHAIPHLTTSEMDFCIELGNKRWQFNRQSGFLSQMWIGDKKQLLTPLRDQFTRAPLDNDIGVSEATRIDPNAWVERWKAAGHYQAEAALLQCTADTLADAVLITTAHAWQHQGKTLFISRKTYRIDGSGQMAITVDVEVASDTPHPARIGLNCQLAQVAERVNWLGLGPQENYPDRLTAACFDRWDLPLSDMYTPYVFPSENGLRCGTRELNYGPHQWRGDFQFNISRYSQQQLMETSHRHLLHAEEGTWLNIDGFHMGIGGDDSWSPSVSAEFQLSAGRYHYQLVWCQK
smiles,measurement,setting,value
"COc1cc2c(cc1OCCCOc1cc3c(cc1OC)C(=O)N1CCC[C@H]1[C@H](O)N3C(=O)OCc1ccc(O[C@@H]3O[C@H](CO)[C@H](O)[C@H](O)[C@H]3O)c([N+](=O)[O-])c1)N(C(=O)OCc1ccc(O[C@@H]3O[C@H](CO)[C@H](O)[C@H](O)[C@H]3O)c([N+](=O)[O-])c1)[C@@H](O)[C@@H]1CCCN1C2=O [Compound 1b, 1,1′-[[(propane-1,3-diyl)dioxy]-bis(11S,11aS)-10-(4-β-D -galactopyranosyloxy-3-nitrophenyl)methoxycarbonyl-11-hydroxy-7-methoxy-1,2,3,-10,11,11a-hexahydro-5H-pyrrolo[2,1-c][1,4]-benzodiazepin-5-one]]",apoptosis / cell death in A375 cells with E. coli β-galactosidase,"A375 cells; A375, with E. coli β-galactosidase",apoptosis identical to that of the parent drugs 6a and 6b respectively
same,amount of cell death in A375 cells in the absence of the enzyme,"A375 cells; A375, without β-galactosidase",insignificant
same,cytometric profile / apoptotic response in HepG2 cells in the presence of E. coli β-galactosidase,"HepG2 cells; HepG2, with added E. coli β-galactosidase",profile comparable to that of the parent drug 6b
same,cytometric profile / apoptotic response in HepG2 cells in the absence of E. coli β-galactosidase,"HepG2 cells; HepG2, without added enzyme (intracellular β-galactosidase)",block in the G2/M phase of the cell cycle
same,activation of the prodrug by β-galactosidase,E. coli β-galactosidase,activated to their corresponding carbinolamines
